From patent publication US10709692B2, “Isoxazolidine derived inhibitors of receptor interacting protein kinase 1 (RIPK1)” (Denali Therapeutics Inc., priority 2015, dated 2020)

What was measured:
[1] = target: T1, receptor interacting protein kinase 1 (GST-hRIPK1 (8-327)) (Homo sapiens, UniProt Q13546); assay: ADP-Glo luminescence assay, RIPK1 autophosphorylation; assay type: biochemical; conditions: 1.5 μg/mL GST-hRIPK1 (8-327), 50 μM ATP, 3 hours at room temperature
T1 construct: GST-hRIPK1 (8-327) enzyme was generated by Proteros GmbH by Baculovirus expression system
T1 sequence (Q13546 8-327): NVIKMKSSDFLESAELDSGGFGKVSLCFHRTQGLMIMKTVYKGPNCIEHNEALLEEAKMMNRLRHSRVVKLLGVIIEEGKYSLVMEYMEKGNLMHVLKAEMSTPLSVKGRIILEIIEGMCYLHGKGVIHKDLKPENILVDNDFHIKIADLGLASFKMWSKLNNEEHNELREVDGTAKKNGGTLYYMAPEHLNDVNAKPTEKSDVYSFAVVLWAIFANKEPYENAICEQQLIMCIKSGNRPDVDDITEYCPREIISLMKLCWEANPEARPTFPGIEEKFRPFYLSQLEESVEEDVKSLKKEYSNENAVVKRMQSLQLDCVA
Procedure: (§1) Compound potency at receptor interacting protein kinase 1 and selectivity at receptor interacting protein kinase 2 and receptor interacting protein kinase 3 was determined in autophosphorylation mode, using an ADP-Glo luminescence assay, which measures the conversion of ATP to ADP.
(§2) GST-hRIPK1 (8-327) enzyme was generated by Proteros GmbH by Baculovirus expression system. GST-hRIPK2 (1-299) and GST-hRIPK3 (1-518) enzymes were purchased from SignalChem. Test compounds were diluted in DMSO and 0.1 μL of solution was dispensed to each well of a 384-well white solid microplates. The assay buffer was 50 mM HEPES pH 7.5, 50 mM NaCl, 30 mM MgCl2. The buffer was supplemented with 0.02% CHAPS, 0.01% of Pluronic F127, 0.1 mg/mL BSA and 1 mM DTT. Only for receptor interacting protein kinase 1 5 mM MnCl2, was included in the assay buffer on the day of the experiment. The enzymatic reaction consisted of 1.5 μg/mL GST-hRIPK1 (8-327) and 50 μM ATP for receptor interacting protein kinase 1, 0.4 μg/mL GST-hRIPK2 (1-299) and 150 μM ATP, 0.4 μg/mL GST-hRIPK3 (1-518) and 15 μM ATP. 5 μL of enzyme and 5 μL of ATP were added to the plate at twice the final assay concentration and incubated at room temperature for 3 hours. Following this reaction, 10 μL of ADP-Glo reagent (Promega) was added to each well and incubated for 40 minutes at room temperature. This stops the kinase reaction and depletes any remaining ATP. 20 μL of ADP-Glo detection reagent was then added to each well and incubated at room temperature for at least 15 minutes. The detection reagent converts ADP to ATP and introduces luciferase and luciferin to detect ATP. The luminescence is then measured with the Envision (PerkinElmer) plate reader. Test compound inhibition was expressed as percent inhibition of internal assay controls. For concentration response curves, normalized data is fit and pIC50 determined using XL-fit (IDBS) for Excel. The pIC50 were averaged to determine a mean value, for a minimum of two independent experiments.
as §1, with “Certain compounds were tested in the following. Compound” for “Compound”, “assay (Berger S. B. et al. (2015) Cell Death Discovery, 1: 15009),” for “assay,”
GST-hRIPK1 (8-327) enzyme was generated by Proteros GmbH by Baculovirus expression system.
as §2, with “Test” for “GST-hRIPK1 (8-327) enzyme was generated by Proteros GmbH by Baculovirus expression system. GST-hRIPK2 (1-299) and GST-hRIPK3 (1-518) enzymes were purchased from SignalChem. Test”, “microplate.” for “microplates.”, “comprised” for “consisted of”, “1” for “1, 0.4 μg/mL GST-hRIPK2 (1-299) and 150 μM ATP, 0.4 μg/mL GST-hRIPK3 (1-518)”, “IC50” for “pIC50”, “experiments. […]” for “experiments.”

[2] = target: T1, receptor interacting protein kinase 1 (GST-hRIPK1 (8-327)); assay: Fluorescent Polarization Binding (FP Binding) assay; conditions: 10 nM GST-hRIPK1 (8-327), 5 nM fluorescent-labeled ligand, 30 min at RT
How it was run: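 Displacement of 5 nM fluorescent ligand from 10 nM GST-hRIPK1 (8-327), 30 min at room temperature in pH 7.5 HEPES buffer, 1% DMSO. Fluorescence polarization read (ex 531/em 595 nm); IC50 fitted from percent inhibition and averaged over at least two independent experiments.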

Row | IC50 [1] [nM] | IC50 [2] [nM] | Structure (SMILES)
1 | < 1000 | – | Cn1c(C#N)ccc1C(=O)N1OCCC1c1c(F)cccc1Cl (racemic) [Compound 3, 5-[3-(2-chloro-6-fluorophenyl)-1,2-oxazolidine-2-carbonyl]-1-methyl-1H-pyrrole-2-carbonitrile]
2 | < 1000 | < 1000 | CC(C)(C)C(=O)N1OCCC1c1ccc(F)cc1 (single isomer, unassigned) [Compound 73, 1-[3-(4-Fluorophenyl)-1,2-oxazolidin-2-yl]-2,2-dimethylpropan-1-one]
3 | < 1000 | < 1000 | Cc1ncc([C@@H]2CCON2C(=O)C(C)(C)C)cc1F (single isomer, unassigned) [Compound 97]
4 | < 1000 | < 1000 | Cn1cc([C@@H]2CCON2C(=O)C(C)(C)C)cn1 (single isomer, unassigned) [Compound 106]
5 | < 1000 | < 1000 | CC(C)(C)C(=O)N1OCC[C@H]1c1cccc(F)c1 (stereo in doubt) [Compound 23, 1-[3-(3-Fluorophenyl)-1,2-oxazolidin-2-yl]-2,2-dimethylpropan-1-one]
6 | < 1000 | < 1000 | Cn1c(C#N)ccc1C(=O)N1OCC[C@H]1c1ccccc1 [Compound 1, 1-Methyl-5-[(3S)-3-phenyl-1,2-oxazolidine-2-carbonyl]-1H-pyrrole-2-carbonitrile]
7 | < 1000 | < 1000 | CC(C)(C)C(=O)N1OCC[C@H]1c1ccccc1 [Compound 2, 2,2-dimethyl-1-[(3S)-3-phenyl-1,2-oxazolidin-2-yl]propan-1-one]
8 | < 1000 | < 1000 | O=C(Nc1ccccc1)N1OCC[C@H]1c1ccccc1 [Compound 4, (3S)—N,3-diphenyl-1,2-oxazolidine-2-carboxamide]
9 | 1000 to 10000 | – | CC(C)(C)NC(=O)N1OCC[C@H]1c1ccccc1 [Compound 5, (3S)—N-tert-Butyl-3-phenyl-1,2-oxazolidine-2-carboxamide]
10 | 1000 to 10000 | – | CN(C)C(=O)N1OCC[C@H]1c1ccccc1 [Compound 6, (3S)—N,N-dimethyl-3-phenyl-1,2-oxazolidine-2-carboxamide]
11 | 1000 to 10000 | – | O=C(N1CCCC1)N1OCC[C@H]1c1ccccc1 [Compound 7, (3S)-3-phenyl-2-(pyrrolidine-1-carbonyl)-1,2-oxazolidine]
12 | < 1000 | < 1000 | CC1(C(=O)N2OCC[C@H]2c2ccccc2)COC1 [Compound 8, (3S)-2-(3-Methyloxetane-3-carbonyl)-3-phenyl-1,2-oxazolidine]
13 | > 10000 | – | O=C(CO)N1OCC[C@H]1c1ccccc1 [Compound 9, 2-hydroxy-1-[(3S)-3-phenyl-1,2-oxazolidin-2-yl]ethan-1-one]
14 | > 10000 | – | O=C(N1OCC[C@H]1c1ccccc1)C1(O)CC1 [Compound 10, 1-[(3S)-3-Phenyl-1,2-oxazolidine-2-carbonyl]cyclopropan-1-ol]
15 | 1000 to 10000 | – | O=C(C1COC1)N1OCC[C@H]1c1ccccc1 [Compound 11, (3S)-2-(Oxetane-3-carbonyl)-3-phenyl-1,2-oxazolidine]
16 | < 1000 | < 1000 | O=C(C1CC1)N1OCC[C@H]1c1ccccc1 [Compound 12, (3S)-2-Cyclopropanecarbonyl-3-phenyl-1,2-oxazolidine]

Row | IC50 [1] [nM] | IC50 [2] [nM] | Structure (SMILES)
17 | 1000 to 10000 | – | COCC(=O)N1OCC[C@H]1c1ccccc1 [Compound 13, 2-Methoxy-1-[(3S)-3-phenyl-1,2-oxazolidin-2-yl]ethan-1-one]
18 | > 10000 | – | C[C@@H](O)C(=O)N1OCC[C@H]1c1ccccc1 [Compound 14, (2R)-2-Hydroxy-1-[(3S)-3-phenyl-1,2-oxazolidin-2-yl]propan-1-one]
19 | < 1000 | < 1000 | N#CC1(C(=O)N2OCC[C@H]2c2ccccc2)CC1 [Compound 16, 1-[(3S)-3-phenyl-1,2-oxazolidine-2-carbonyl]cyclopropane-1-carbonitrile]
20 | < 1000 | < 1000 | CC(C)(C#N)C(=O)N1OCC[C@H]1c1ccccc1 [Compound 17, 2,2-Dimethyl-3-oxo-3-[(3S)-3-phenyl-1,2-oxazolidin-2-yl]propanenitrile]
21 | < 1000 | < 1000 | O=C(c1onc2ccccc12)N1OCC[C@H]1c1ccccc1 [Compound 18, 3-[(3S)-3-phenyl-1,2-oxazolidine-2-carbonyl]-2,1-benzoxazole]
22 | < 1000 | < 1000 | CC(C)(O)C(=O)N1OCC[C@H]1c1ccccc1 [Compound 19, 2-Hydroxy-2-methyl-1-[(3S)-3-phenyl-1,2-oxazolidin-2-yl]propan-1-one]
23 | < 1000 | < 1000 | CC1(C(=O)N2OCC[C@H]2c2ccccc2)CC1 [Compound 20, (3S)-2-(1-Methylcyclopropanecarbonyl)-3-phenyl-1,2-oxazolidine]
24 | 1000 to 10000 | – | CC(C)(C)OC(=O)N1OCC[C@H]1c1ccccc1 [Compound 22, tert-Butyl (3S)-3-phenyl-1,2-oxazolidine-2-carboxylate]
25 | < 1000 | < 1000 | CC(C)C(=O)N1OCC[C@H]1c1ccc(F)cc1 [Compound 64, 1-[(3S)-3-(4-Fluorophenyl)-1,2-oxazolidin-2-yl]-2-methylpropan-1-one]
26 | < 1000 | < 1000 | CC1(C(=O)N2OCC[C@H]2c2ccccc2)CCOCC1 [Compound 69, (3S)-2-(4-methyloxane-4-carbonyl)-3-phenyl-1,2-oxazolidine]
27 | < 1000 | < 1000 | CC(C)(C)C(=O)N1OCCC1c1ccc(F)nc1 (centres unmarked) [Compound 70]
28 | < 1000 | < 1000 | CC(C)(C)C(=O)N1OCC[C@@H]1c1ccccc1F [Compound 71]
29 | 1000 to 10000 | – | CC(C)(C)OC(=O)N1OCCC1c1ccccc1 (centres unmarked) [Compound 83, tert-butyl 3-phenylisoxazolidine-2-carboxylate]
30 | > 10000 | – | CC(C)(C)C(=O)N1OCC[C@@H]1c1ccccc1 [Compound 84, (R)-2,2-dimethyl-1-(3-phenylisoxazolidin-2-yl)propan-1-one]
31 | > 10000 | – | Cn1c(C#N)ccc1C(=O)N1OCC[C@@H]1c1ccccc1 [Compound 85, (R)-1-methyl-5-(3-phenylisoxazolidine-2-carbonyl)-1H-pyrrole-2-carbonitrile]
32 | – | 5 | N#Cc1cncc([C@@H]2CCON2C(=O)C(C2CC2)(C2CC2)C2CC2)c1 [Compound 242, 5-[(3S)-2-(tricyclopropylacetyl)-1,2-oxazolidin-3-yl]pyridine-3-carbonitrile]
